The test system of this assay is BDF1 mice, Lewis lung carcinoma iv, survival T/C. The assay can be described thus: NCI In Vivo Anticancer Drug Screen. Data for tumor model Lewis Lung Carcinoma (intravenous) in B6D2F1 (BDF1) mice. The settings on record: higher = longer survival. On the procedure: The antitumor activity of compounds was measured in mice bearing transplantable tumors. Survival or tumor size were measured and the results are expressed as the measurement made in the treated group (T) divided by the measurement made in the vehicle treated control group (C). The tumor model used in this assay is Lewis Lung Carcinoma (intravenous) in B6D2F1 (BDF1) mice

[1] abbreviates: endpoint: median survival time, dose: 25.0 mg/kg/injection, schedule: Q01DX009 (ip), vehicle: Klucel (hydroxypropylcellulose) (HPC).
The mark [2] stands for this setting: endpoint: median survival time, dose: 50.0 mg/kg/injection, schedule: Q01DX009 (ip), vehicle: Klucel (hydroxypropylcellulose) (HPC).
The mark [3] stands for this setting: endpoint: median survival time, dose: 6.25 mg/kg/injection, schedule: Q01DX009 (ip), vehicle: Klucel (hydroxypropylcellulose) (HPC).
[4] abbreviates: endpoint: median survival time, dose: 12.5 mg/kg/injection, schedule: Q01DX009 (ip), vehicle: Klucel (hydroxypropylcellulose) (HPC).
Where [5] appears, read: endpoint: median survival time, dose: 6.25 mg/kg/injection, schedule: Q01DX009 (ip), vehicle: water.
Where [6] appears, read: endpoint: median survival time, dose: 12.5 mg/kg/injection, schedule: Q01DX009 (ip), vehicle: water.
The mark [7] stands for this setting: endpoint: median survival time, dose: 12.5 mg/kg/injection, schedule: Q01DX009 (ip), vehicle: saline with Tween-80.
Setting [8] is: endpoint: median survival time, dose: 25.0 mg/kg/injection, schedule: Q01DX009 (ip), vehicle: saline with Tween-80.
Where [9] appears, read: endpoint: median survival time, dose: 50.0 mg/kg/injection, schedule: Q01DX009 (ip), vehicle: saline with Tween-80.
[10] abbreviates: endpoint: median survival time, dose: 100.0 mg/kg/injection, schedule: Q01DX009 (ip), vehicle: saline with Tween-80.
Where [11] appears, read: endpoint: median survival time, dose: 200.0 mg/kg/injection, schedule: Q01DX009 (ip), vehicle: saline with Tween-80.
The mark [12] stands for this setting: endpoint: median survival time, dose: 25.0 mg/kg/injection, schedule: Q01DX009 (ip), vehicle: saline.
[13] abbreviates: endpoint: median survival time, dose: 50.0 mg/kg/injection, schedule: Q01DX009 (ip), vehicle: saline.
Setting [14] is: endpoint: median survival time, dose: 100.0 mg/kg/injection, schedule: Q01DX009 (ip), vehicle: saline.
[15] abbreviates: endpoint: median survival time, dose: 200.0 mg/kg/injection, schedule: Q01DX009 (ip), vehicle: saline.
Setting [16] is: endpoint: median survival time, dose: 400.0 mg/kg/injection, schedule: Q01DX009 (ip), vehicle: saline.
Where [17] appears, read: endpoint: median survival time, dose: 12.5 mg/kg/injection, schedule: Q01DX009 (ip), vehicle: saline.

This passage reports T/C results from PubChem BioAssay AID274 (DTP/NCI, 2004).

“And” between values parts separate entries of the source, which are not always exact repeats. Equal values may be shown once. Inconclusive results and toxic doses are left out.

Turning to `CN(C)/N=N/c1nc[nH]c1C(N)=O`, the T/C by setting is: (endpoint: median survival time, dose: 16.0 mg/kg/injection, schedule: Q01DX009 (ip), vehicle: Klucel (hydroxypropylcellulose) (HPC)) 102 % of control; under setting [1], 150 % of control; (endpoint: median survival time, dose: 32.0 mg/kg/injection, schedule: Q01DX009 (ip), vehicle: Klucel (hydroxypropylcellulose) (HPC)) 109 % of control; under setting [2], 118 % of control; (endpoint: median survival time, dose: 128.0 mg/kg/injection, schedule: Q01DX009 (ip), vehicle: Klucel (hydroxypropylcellulose) (HPC)) 117 % of control; (endpoint: median survival time, dose: 256.0 mg/kg/injection, schedule: Q01DX009 (ip), vehicle: Klucel (hydroxypropylcellulose) (HPC)) 123 % of control.

As to `C1CCC2OCCOCCOC3CCCCC3OCCOCCOC2C1` (centres undefined), the T/C by setting is: (endpoint: median survival time, dose: 3.12 mg/kg/injection, schedule: Q01DX009 (ip), vehicle: Klucel (hydroxypropylcellulose) (HPC)) 92 % of control; under setting [3], 87 % of control; under setting [4], 101 % of control; under setting [1], 93 % of control; under setting [2], 91 % of control.

As to `CN1N=C(N)c2cn(C3OC(COP(=O)(O)O)C(O)C3O)c3ncnc1c23` (centres undefined), the T/C reads like this: (endpoint: median survival time, dose: 0.39 mg/kg/injection, schedule: Q01DX009 (ip), vehicle: water) 100 % of control; (endpoint: median survival time, dose: 0.78 mg/kg/injection, schedule: Q01DX009 (ip), vehicle: water) 92 % of control; (endpoint: median survival time, dose: 1.56 mg/kg/injection, schedule: Q01DX009 (ip), vehicle: water) 86 % of control; (endpoint: median survival time, dose: 3.12 mg/kg/injection, schedule: Q01DX009 (ip), vehicle: water) 93 % of control; under setting [5], 99 % of control; under setting [6], 99 % of control.

For `CC(=O)OC1C2(CC3N4C(=O)C5(CO)SSC4(CC31O)C(=O)N5C)OC(C)C(C)(C)C2=O` (centres undefined), where the note is “endpoint: median survival time, dose: 0.62 mg/kg/injection, schedule: Q01DX009 (ip), vehicle: saline”, the T/C is 171 % of control.

As for `CC1OC(=O)C(C(C)C)NC(=O)C(C(C)C)OC(=O)C(C(C)C)NC(=O)C(C)OC(=O)C(C(C)C)NC(=O)C(C(C)C)OC(=O)C(C(C)C)NC(=O)C(C)OC(=O)C(C(C)C)NC(=O)C(C(C)C)OC(=O)C(C(C)C)NC1=O` (centres undefined), the T/C by setting is: (endpoint: median survival time, dose: 1.25 mg/kg/injection, schedule: Q01DX009 (ip), vehicle: saline with Tween-80) 94 % of control; (endpoint: median survival time, dose: 2.5 mg/kg/injection, schedule: Q01DX009 (ip), vehicle: saline with Tween-80) 102 % of control; (endpoint: median survival time, dose: 5.0 mg/kg/injection, schedule: Q01DX009 (ip), vehicle: saline with Tween-80) 98 % of control; (endpoint: median survival time, dose: 10.0 mg/kg/injection, schedule: Q01DX009 (ip), vehicle: saline with Tween-80) 102 % of control; (endpoint: median survival time, dose: 20.0 mg/kg/injection, schedule: Q01DX009 (ip), vehicle: saline with Tween-80) 89 % of control; (endpoint: median survival time, dose: 40.0 mg/kg/injection, schedule: Q01DX009 (ip), vehicle: saline with Tween-80) 89 % of control.

Turning to `[O-][n+]1c(CN2CCCCC2)nc2cccc3c2c1-c1ccccc1-3`, the T/C under setting [7] is 98 % of control and 100 % of control; the T/C under setting [8] is 98 % of control and 123 % of control; the T/C under setting [9] was 105 % of control and 106 % of control; the T/C under setting [10] is 111 % of control and 116 % of control; the T/C under setting [11] is 102 % of control and 118 % of control; the T/C (endpoint: median survival time, dose: 400.0 mg/kg/injection, schedule: Q01DX009 (ip), vehicle: saline with Tween-80) was 111 % of control.

`COc1cccc2c1C(=O)c1c(O)c3c(c(O)c1C2=O)C[C@@](O)(/C(C)=N\O)C[C@@H]3OC1CC(N)C(O)C(C)O1` (some centres undefined): the T/C is, setting by setting: (endpoint: median survival time, dose: 3.13 mg/kg/injection, schedule: Q01DX009 (ip), vehicle: water) 108 % of control; under setting [5], 99 % of control; under setting [6], 114 % of control.

In the case of `CN(C)c1ccc2c(N(C)C)cc(N(C)C)nc2c1`, the T/C is 98 % of control (endpoint: median survival time, dose: 1.56 mg/kg/injection, schedule: Q01DX009 (ip), vehicle: Klucel (hydroxypropylcellulose) (HPC)); 95 % of control (endpoint: median survival time, dose: 3.13 mg/kg/injection, schedule: Q01DX009 (ip), vehicle: Klucel (hydroxypropylcellulose) (HPC)); 102 % of control under setting [3]; 99 % of control under setting [4]; 111 % of control under setting [1].

For the compound `CCCCCCCCCCCCOP(N)(=O)OCCCCCCCCCCCC`, the T/C under setting [8] was 97 % of control, the T/C under setting [9] was 93 % of control and the T/C under setting [10] is 91 % of control.

`CC[PH+](CC)CC[S-].CC[PH+](CC)CC[S-].[Au+].[Au+]`: the T/C by setting is: (endpoint: median survival time, dose: 2.5 mg/kg/injection, schedule: Q01DX009 (ip), vehicle: Klucel (hydroxypropylcellulose) (HPC)) 115 % of control; (endpoint: median survival time, dose: 5.0 mg/kg/injection, schedule: Q01DX009 (ip), vehicle: Klucel (hydroxypropylcellulose) (HPC)) 102 % of control; (endpoint: median survival time, dose: 10.0 mg/kg/injection, schedule: Q01DX009 (ip), vehicle: Klucel (hydroxypropylcellulose) (HPC)) 109 % of control; (endpoint: median survival time, dose: 20.0 mg/kg/injection, schedule: Q01DX009 (ip), vehicle: Klucel (hydroxypropylcellulose) (HPC)) 114 % of control; (endpoint: median survival time, dose: 40.0 mg/kg/injection, schedule: Q01DX009 (ip), vehicle: Klucel (hydroxypropylcellulose) (HPC)) 102 % of control; (endpoint: median survival time, dose: 80.0 mg/kg/injection, schedule: Q01DX009 (ip), vehicle: Klucel (hydroxypropylcellulose) (HPC)) 109 % of control.

`CCOC(=O)C(N)CSC(=O)NC` (centres undefined): the T/C is, setting by setting: under setting [12], 105 % of control; under setting [13], 98 % of control; under setting [14], 96 % of control; under setting [15], 96 % of control; under setting [16], 113 % of control.

Turning to `O=C1CN(CN2CCOCC2)C(=O)CN1CN1CCOCC1`, the T/C was 118 % of control under setting [17]; 113 % of control under setting [12]; 95 % of control under setting [13]; 93 % of control under setting [14]; 104 % of control under setting [15].

`NC(N)=NC(N)=Nc1ccc(-c2ccc(N=C(N)N=C(N)N)cc2)cc1`: the T/C was 110 % of control (endpoint: median survival time, dose: 0.78 mg/kg/injection, schedule: Q01DX009 (ip), vehicle: saline with Tween-80); 110 % of control (endpoint: median survival time, dose: 1.56 mg/kg/injection, schedule: Q01DX009 (ip), vehicle: saline with Tween-80); 99 % of control (endpoint: median survival time, dose: 3.13 mg/kg/injection, schedule: Q01DX009 (ip), vehicle: saline with Tween-80); 90 % of control (endpoint: median survival time, dose: 6.25 mg/kg/injection, schedule: Q01DX009 (ip), vehicle: saline with Tween-80); 113 % of control under setting [7].

For `O=P1(N(CCCl)CCCl)NCCCO1` (centres undefined), the T/C (endpoint: median survival time, dose: 39.0 mg/kg/injection, schedule: Q01DX001 (ip), vehicle: saline) was 119 % of control; the T/C (endpoint: median survival time, dose: 50.0 mg/kg/injection, schedule: Q01DX001 (ip), vehicle: saline) was 155 % of control; the T/C (endpoint: median survival time, dose: 78.0 mg/kg/injection, schedule: Q01DX001 (ip), vehicle: saline) was 174 % of control; the T/C (endpoint: median survival time, dose: 133.0 mg/kg/injection, schedule: Q10DX002 (ip), vehicle: saline) was 168 % of control; the T/C (endpoint: median survival time, dose: 200.0 mg/kg/injection, schedule: Q10DX002 (ip), vehicle: saline) was 155 % of control.

In the case of `Nc1cc2[nH]cnc2c(=O)[nH]1`, the T/C (endpoint: mean survival time, dose: 95.0 mg/kg/injection, schedule: Q01DX009 (ip), vehicle: Klucel (hydroxypropylcellulose) (HPC)) is 118 % of control and the T/C (endpoint: mean survival time, dose: 140.0 mg/kg/injection, schedule: Q01DX009 (ip), vehicle: Klucel (hydroxypropylcellulose) (HPC)) is 90 % of control.

Take `O=c1[nH]c(=O)c2nc(-c3cccnc3)cnc2[nH]1`: the T/C reads like this: under setting [17], 102 % of control; under setting [12], 101 % of control; under setting [13], 108 % of control; under setting [14], 100 % of control; under setting [15], 111 % of control; under setting [16], 111 % of control.

Turning to `CC(=O)N(C)O`, the T/C under setting [8] was 102 % of control, the T/C under setting [9] is 90 % of control, the T/C under setting [10] was 98 % of control and the T/C under setting [11] was 95 % of control.
